Measured values published in patent US20210386829A1, “COMPOSITIONS AND METHODS FOR MODULATING CGRP SIGNALING TO REGULATE INNATE LYMPHOID CELL INFLAMMATORY RESPONSES” (The Broad Institute, Inc., priority 2018, published 2021).

Test system: lung-resident ILCs
Experiment: SMART-Seq2 plate-based scRNA-seq of lung-resident ILCs from PBS-, IL-25- or IL-33-treated mice, differential gene expression by logistic regression (Tables 3, 4)
Assay type: in vivo, mouse
Text: Mice and in vivo ILC activation. C57B1/6J mice were purchased from the Jackson Laboratory. Nmur1-LacZ reporter mice with a LacZ cassette knocked into the Nmur1 locus were rederived from Nmur1^tm1.1(KOMP)Vlcg sperm obtained from the trans-NIH Knock-Out Mouse Project (KOMP) Repository. NMU-deficient mice (NMU-KO) were rederived from B6.129S2-Nmu<tm1Mko> embryos from the RIKEN BioResource Center. For experiments with Nmur1-LacZ (Nmur1-KO) and NMU-KO mice, littermates that were either homozygous or heterozygous for the wild type allele were used as controls. Mice were housed under specific-pathogen-free conditions. For experiments, mice were matched for sex and age, and most mice were 6-10 weeks old. Where indicated, mice were anesthetized with Isoflurane and treated intranasally with the indicated stimuli (500 ng IL-25, 500 ng IL-33, or 20 μg Neuromedin U) daily for three consecutive days. The total administered volume was 20 μl for all conditions. Mice were randomly assigned to treatment groups after matching for sex and age. […] Mice were treated intranasally with 10 μg HDM on day 0, 7, 8, and 9, prior to sacrifice on day 10. All experiments were conducted in accordance with animal protocols approved by the Harvard Medical Area Standing Committee on Animals or BWH IACUC.
Fluorescence-activated cell sorting of innate lymphoid cells. After dissociation, single cell suspensions were incubated with CD90.2 MicroBeads (Miltenyi Biotec) on ice and enriched for CD90.2^+ cells by magnetic separation using LS columns according to the manufacturer's protocol. CD90.2^+ lung cells were then stained on ice with antibodies for sorting. ILCs were defined as 7AAD^− CD45^+ CD90.2^+ CD127^+ Lineage (CD11b, CD11c, CD19, NK1.1, […], CD4, CD8a, TCRβ, TCRγδ)^− cells and sorted on a BD FACS Aria (BD Biosciences).
For full-length scRNA-Seq, single ILCs were sorted into 96-well plates containing 5 ul TCL Buffer (QIAGEN) with 1% 2-Mercaptoethanol, centrifuged and frozen at −80° C. SMART-Seq2 protocol was carried out as previously described^23 with minor modifications in the reverse transcription step. cDNA was amplified with 22 cycles and fragmented with one-eighth of the standard Illumina NexteraXT reaction volume. Single-cell libraries were pooled and paired-end sequenced (38 bp×2) with a 75 cycle Nextseq 500 high output V2 kit.
Analysis of SMART-Seq2 plate-based scRNA-Seq data. Reads were aligned to mm10 using Kallisto (Bray, N. L., Pimentel, H., Meisted, P. & Pachter, L. Near-optimal probabilistic RNA-seq quantification. Nat Biotechnol 134, 525-527, doi:10.1038/nbt.3519 (2016)) quant, version 0.42.3. The R package tximport (Soneson, C., Love, M. I. & Robinson, M. D. Differential analyses for RNA-seq: transcript-level estimates improve gene-level inferences [version 2; referees: 2 approved]. F1000Research 4, doi:10.12688/f1000research.7563.2 (2016)), version 1.2.0, was used to convert the output to gene counts and traditional TPM values. Because of the variability in read counts per cell across plates, even from the same condition, as well as in the number of genes per cell across conditions, QC was performed for each of eight plates individually in order to remove cells that were outliers with respect to either measure. Out of 752 cells, 606 cells met QC criteria (234 from control, 152 from IL-25 treated mice, and 220 from IL-33 treated mice), and the number of genes per cell in this set ranged from 1,625 to 6,375. Genes that were not expressed with log(TPM)>2.5 in at least two cells were removed from further analysis. Subsequent analysis proceeded analogously to the droplet-based RNA-seq analysis, with parameter settings that reflected both the wider dynamic range of expression and much smaller cell numbers. The minimum ILC signature score required in ILC type assignment was 0.3. Variable genes were identified by running MeanVarPlot with x.low.cutoff=0.1, y.cutoff=1.5, and x.high.cutoff=10, resulting in a set of 519 genes. […]

IL33
0610031J06Rik expression coeff: 1.33 | 1700017B05Rik expression coeff: −1.5 | 1700113H08Rik expression coeff: −1.32 | 4632428N05Rik expression coeff: 1.58 | AA467197 expression coeff: 2.99 | AI593442 expression coeff: −3.15 | AI836003 expression coeff: −1.26 | AW112010 expression coeff: 0.998 | Abtb2 expression coeff: 1.34 | Acot7 expression coeff: 1.78 | Adrbk1 expression coeff: 1.08 | Adsl expression coeff: −0.98 | Ahcyl2 expression coeff: −1.24 | Amd1 expression coeff: −1.75 | Anxa2 expression coeff: 1.81 | Ap3d1 expression coeff: 0.94 | Arf5 expression coeff: 0.972 | Arhgap1 expression coeff: 1.12 | Arhgap26 expression coeff: 1.3 | Asl expression coeff: 1.31 | Asph expression coeff: −1.56 | Atp8b4 expression coeff: 1.07 | Atxn7l3b expression coeff: 0.957 | Bcl2a1d expression coeff: 0.97 | Bcl3 expression coeff: 1.42 | Bcl6 expression coeff: 1.98 | Bmp2 expression coeff: −2.03 | Brix1 expression coeff: −1.21 | C1qbp expression coeff: −1.08 | Cap1 expression coeff: 1.24 | Cblb expression coeff: 0.969 | Ccdc50 expression coeff: 0.948 | Ccdc142 expression coeff: −1.56 | Ccng1 expression coeff: 0.916 | Ccr2 expression coeff: −1.11 | Cd247 expression coeff: 1.52 | Chdh expression coeff: 1.07 | Chordc1 expression coeff: 1.09 | Chst11 expression coeff: 1.25 | Cirbp expression coeff: −1.67 | Commd10 expression coeff: −1.3 | Cox10 expression coeff: 0.894 | Cpsf7 expression coeff: 1.13 | Crlf2 expression coeff: 1.16 | Csf1 expression coeff: −1.61 | Cst7 expression coeff: 1.5 | Ctla4 expression coeff: 2.65 | Ctsw expression coeff: 1.07 | Cybrd1 expression coeff: −1.22 | Dcaf12 expression coeff: 0.975 | Ddrgk1 expression coeff: −0.935 | Ddx20 expression coeff: −1.92 | Ddx58 expression coeff: 0.912 | Dennd5a expression coeff: 0.993 | Dgka expression coeff: 1.02 | Dhx35 expression coeff: −1.51 | Dhx37 expression coeff: −0.889 | Dhx58 expression coeff: 2.39 | Dkk3 expression coeff: 0.959 | Dock10 expression coeff: −0.886 | E030030I06Rik expression coeff: −1.01 | Ecm1 expression coeff: 1.16 | Endod1 expression coeff: 1.51 | Epsti1 expression coeff: 1.72 | Eva1b expression coeff: 1.29 | Exosc4 expression coeff: −0.925 | Extl3 expression coeff: −1.19 | Fam118a expression coeff: −0.991 | Fbxl21 expression coeff: −2.6 | Ffar2 expression coeff: 1.38 | Fhl2 expression coeff: −0.933 | Fosb expression coeff: −0.948 | Foxo3 expression coeff: 1.17 | Fus expression coeff: −0.954 | Gal3st3 expression coeff: −1.08 | Gba expression coeff: 0.976 | Gbp4 expression coeff: 0.935 | Gbp6 expression coeff: 1.87 | Gbp9 expression coeff: 1.12 | Gga1 expression coeff: 1.33 | Gigyf1 expression coeff: −0.966 | Glrx expression coeff: 1.26 | Gm12250 expression coeff: 3.39 | Gnai2 expression coeff: 1.04 | Gng2 expression coeff: 1.35 | Gnl3l expression coeff: −1.25 | Gp49a expression coeff: 1.62 | Gpr108 expression coeff: 0.909 | Grn expression coeff: 1.55 | Gskip expression coeff: 1.72 | Gucd1 expression coeff: 1.09 | H2-T9 expression coeff: 1.1 | H2-T10 expression coeff: 0.906 | H2-T22 expression coeff: 1.27 | Herc6 expression coeff: 1.21 | Hpcal1 expression coeff: 1.26 | Hsph1 expression coeff: 1.26 | Idh2 expression coeff: −1.43 | Ifi35 expression coeff: 0.95 | Ifngr2 expression coeff: −0.881 | Ifrd2 expression coeff: −1.74 | Igfbp4 expression coeff: −2.3 | Igsf5 expression coeff: −1.13 | Il2rb expression coeff: 1.27 | Il5 expression coeff: 1.34 | Il13 expression coeff: 1.57 | Impact expression coeff: −1.54 | Inpp1 expression coeff: 1.29 | Inpp4b expression coeff: −0.999 | Inpp5b expression coeff: 1.22 | Irf4 expression coeff: 1.58 | Irf7 expression coeff: 1.43 | Isg15 expression coeff: 3.16 | Isg20 expression coeff: 2.26 | Itgae expression coeff: 1.21 | Kit expression coeff: −1.23 | Krit1 expression coeff: 1.04 | Lamp2 expression coeff: 0.996 | Lancl1 expression coeff: −1.58 | Lat2 expression coeff: 1.05 | Lcmt2 expression coeff: −1.12 | Lgals3bp expression coeff: 1.95 | Lgals3 expression coeff: 1.4 | Lilrb4 expression coeff: 2.11 | Lpcat2 expression coeff: −1.56 | Lsm6 expression coeff: −1.12 | Lxn expression coeff: 1.29 | Ly6a expression coeff: 1.67 | Map2k4 expression coeff: 1.64 | Marf1 expression coeff: 1.15 | Med16 expression coeff: −0.941 | Mfsd1 expression coeff: 1.05 | Mgat1 expression coeff: 1.21 | Mgat5 expression coeff: 1.08 | Mier3 expression coeff: −1.41 | Mkl2 expression coeff: −0.923 | Mlec expression coeff: 0.999 | Morc3 expression coeff: 1.05 | Mov10 expression coeff: 1.45 | Mplkip expression coeff: −1.13 | Mrp63 expression coeff: 1.21 | Mrpl40 expression coeff: −1.08 | Mrpl52 expression coeff: 0.944 | Mrpl53 expression coeff: −1.26 | Mrps18a expression coeff: −1.11 | Ms4a4b expression coeff: 2.44 | Ms4a6b expression coeff: 2.02 | Mtfmt expression coeff: −1.57 | Mxd1 expression coeff: 1.05 | Mybbp1a expression coeff: −0.978 | Myg1 expression coeff: −1.26 | Myo1f expression coeff: 1.04 | Myo1g expression coeff: 1.31 | Naa60 expression coeff: 1.11 | Nbn expression coeff: −1.39 | Ndufaf3 expression coeff: 1.52 | Neu3 expression coeff: −1.92 | Nfil3 expression coeff: 1.77 | Nipal1 expression coeff: 1.74 | Nlrc5 expression coeff: 1.3 | Nol6 expression coeff: −1.23 | Nol9 expression coeff: −1.02 | Nop56 expression coeff: −1.41 | Npc2 expression coeff: 1.53 | Npnt expression coeff: 0.949 | Nrip1 expression coeff: 1.07 | Nsmaf expression coeff: 0.914 | Oas1a expression coeff: 2.09 | Ogfr expression coeff: 1.12 | Omd expression coeff: −1.13 | Parp3 expression coeff: 1.21 | Parp10 expression coeff: 1.34 | Parp14 expression coeff: 1.21 | Paxip1 expression coeff: −0.998 | Pdcd1 expression coeff: 1.35 | Pde4b expression coeff: 1.24 | Per1 expression coeff: −1.16 | Pfas expression coeff: −1.41 | Phc3 expression coeff: 0.936 | Phf11a expression coeff: 1.98 | Phf11b expression coeff: 1.89 | Picalm expression coeff: 1 | Pigv expression coeff: −1.36 | Pin4 expression coeff: 1.28 | Plac8 expression coeff: 1.62 | Plekha5 expression coeff: −1.23 | Plxdc2 expression coeff: −0.903 | Pml expression coeff: 1.2 | Ppif expression coeff: −1.91 | Ppp1r15a expression coeff: −1.09 | Pydc4 expression coeff: 1.37 | Pyhin1 expression coeff: 1.04 | Rab7l1 expression coeff: 2.2 | Rab8b expression coeff: 1.03 | Rab33b expression coeff: −1.1 | Rdh1 expression coeff: −1.91 | Rdh13 expression coeff: −1.75 | Rilpl2 expression coeff: 1.43 | Rnf125 expression coeff: 1.06 | Rtp4 expression coeff: 2.55 | Samd9l expression coeff: 1.2 | Sbno2 expression coeff: 1.2 | Sdc4 expression coeff: −0.924 | Sdccag3 expression coeff: 1.08 | Sema4a expression coeff: −0.903 | Sema4d expression coeff: 1.28 | Sesn3 expression coeff: 1.18 | Shank2 expression coeff: −3.62 | Sipa1 expression coeff: 1.34 | Slc25a24 expression coeff: 1.33 | Slc44a2 expression coeff: 1.22 | Slfn2 expression coeff: 1.6 | Smn1 expression coeff: −1.01 | Sntb1 expression coeff: 1.19 | Soat1 expression coeff: 1.07 | Socs1 expression coeff: −1.32 | Socs2 expression coeff: −1.33 | Socs3 expression coeff: 1.44 | Sp100 expression coeff: 1.07 | Sptssa expression coeff: −0.952 | Ssr3 expression coeff: 0.999 | St3gal6 expression coeff: −1.32 | Stab1 expression coeff: 1.65 | Stat1 expression coeff: 1.23 | Syt11 expression coeff: 0.979 | Taf1d expression coeff: 1.1 | Tango6 expression coeff: −2.16 | Tap1 expression coeff: 1.17 | Tap2 expression coeff: 1.07 | Tet3 expression coeff: 1.32 | Tmem33 expression coeff: 1.08 | Tmem176a expression coeff: −1 | Tmem176b expression coeff: −1.23 | Tmem209 expression coeff: −1.27 | Tmem229b expression coeff: 1.01 | Tnfrsf18 expression coeff: −1.12 | Tnfsf10 expression coeff: −1.88 | Tpm4 expression coeff: 0.969 | Tradd expression coeff: 1.29 | Trafd1 expression coeff: 1.81 | Trim12c expression coeff: 1.16 | Trim30a expression coeff: 1.18 | Trim34a expression coeff: 1.29 | Trim30d expression coeff: 1.14 | Trip13 expression coeff: −2.7 | Trp53inp1 expression coeff: 1.16 | Ttc19 expression coeff: 1.44 | Ttc39b expression coeff: 1.16 | Ube2h expression coeff: 1.05 | Usp18 expression coeff: 1.6 | Usp36 expression coeff: −1.09 | Vdr expression coeff: 2.04 | Vmp1 expression coeff: 1.4 | Xrcc3 expression coeff: −1.02 | Zbp1 expression coeff: 2.38 | Zc3h12a expression coeff: −1.12 | Zcchc10 expression coeff: −0.914 | Zfand6 expression coeff: 1.38 | Zfc3h1 expression coeff: 1.14 | Zfp110 expression coeff: −1.24 | Zfp825 expression coeff: −1.02
